Test results published in patent US20250368628A1, “METHODS AND COMPOUNDS FOR MODULATING INHERITED GENETIC DISEASES” (Design Therapeutics, Inc., priority 2022, published 2025).
pEC50: −log10 of the molar value. Where two headings read alike, the source gives them in different places.

Tests used:
[1] = test system: Myotonic Dystrophy 1 affected patient fibroblasts (Coriel GM04602; 1600 CTG repeats); assay: DM1 foci reduction assay (EC50 assay; CAG10-Cy3 FISH, foci per nucleus); assay type: cell-based; conditions: Homo sapiens, Fibroblast; for pEC50: DM1 patient fibroblasts, 48 h treatment, foci per nucleus, read-out: DM1 EC50, 48 h; for EC50: 48 h, read-out: DM1 EC50, 48 h (nM)
Procedure, shortened: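 Foci per nucleus counted by 20× imaging of 4 areas per well, after overnight FISH with 5 nM CAG10-Cy3 and DAPI staining of fixed, permeabilized cells. DM1 fibroblasts (GM04602, 1600 CTG) were dosed 48 h at 37 °C, 8 points, 3-fold dilutions, 3 μM top concentration.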

F35T cells = assay: Foci reduction in FECD (CAG10-Cy3 FISH, foci per nucleus); assay type: cell-based; conditions: for pEC50: F35T cells, 48 h treatment, foci per nucleus, read-out: FECD EC50, 48 h; for EC50: 48 h, read-out: FECD EC50, 48 h (nM)
Procedure, shortened: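 Foci per nucleus were counted by imaging after overnight CAG10-Cy3 FISH at 37 °C (30% formamide, 2×SSC) with DAPI counterstain, on PFA-fixed, ethanol-permeabilized F35T cells. The cells, seeded at 5000 per well in supplemented Opti-MEM, had received 8-point compound dilutions for 48 h at 37 °C.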

SMILES	pEC50 [1]	pEC50 (F35T cells)	EC50 [1]	EC50 (F35T cells)
CCCNC(=O)c1nc(NC(=O)c2cc(NC(=O)CCNC(=O)c3nc(NC(=O)CCCNC(=O)c4cc(NC(=O)c5nc(NC(=O)CCNC(=O)c6cc(NC(=O)c7nccn7C)cn6C)cn5C)cn4CCCCCCn4cc(COCCOCCOCCOC)nn4)cn3C)cn2C)cn1C [Compound B-376]	< 6.00	6.30 to 7.00		
Cn1cc(NC(=O)c2nc(NC(=O)CCNC(=O)c3cc(NC(=O)c4nccn4C)cn3C)cn2C)cc1C(=O)NCCCC(=O)Nc1cn(C)c(C(=O)NCCC(=O)Nc2cc(C(=O)Nc3cn(C)c(C(=O)NCCC#N)n3)n(C)c2)n1 [Compound B-377]	6.30 to 7.00	> 7.00		
Cn1cc(NC(=O)c2nc(NC(=O)CCNC(=O)c3cc(NC(=O)c4nccn4C)cn3C)cn2C)cc1C(=O)NCCCC(=O)Nc1cn(C)c(C(=O)NCCC(=O)Nc2cc(C(=O)Nc3cn(C)c(C(=O)NCCC(=O)N4CCC(C#CC#CC5CCN(C(=O)OC(C)(C)C)CC5)CC4)n3)n(C)c2)n1 [Compound B-378, Tert-butyl 4-[4-(1-{3-[(1-methyl-4-{1-methyl-4-[3-({1-methyl-4-[4-({1-methyl-4-[1-methyl-4-(3-{[1-methyl-4-(1-methylimidazole-2-amido)pyrrol-2-yl]formamido}propanamido)imidazole-2-amido]pyrrol-2-yl}formamido)butanamido]imidazol-2-yl}formamido)propanamido]pyrrole-2-amido}imidazol-2-yl)formamido]propanoyl}piperidin-4-yl)buta-1,3-diyn-1-yl]piperidine-1-carboxylate]	< 6.00	6.30 to 7.00		
CC(=O)N1CCC(C#CC#CC2CCN(C(=O)CCNC(=O)c3nc(NC(=O)c4cc(NC(=O)CCNC(=O)c5nc(NC(=O)CCCNC(=O)c6cc(NC(=O)c7nc(NC(=O)CCNC(=O)c8cc(NC(=O)c9nccn9C)cn8C)cn7C)cn6C)cn5C)cn4C)cn3C)CC2)CC1 [Compound B-379]	6.30 to 7.00	> 7.00		
Cn1cc(NC(=O)c2nc(NC(=O)CCNC(=O)c3cc(NC(=O)c4nccn4C)cn3C)cn2C)cc1C(=O)NCCCC(=O)Nc1cn(C)c(C(=O)NCCC(=O)Nc2cc(C(=O)Nc3cn(C)c(C(=O)NCCC(=O)N4CCC(C#CC#CC5CCOCC5)CC4)n3)n(C)c2)n1 [Compound B-380]	> 7.00	> 7.00		
CC#CC#CC1CCN(C(=O)CCNC(=O)c2nc(NC(=O)c3cc(NC(=O)CCNC(=O)c4nc(NC(=O)CCCNC(=O)c5cc(NC(=O)c6nc(NC(=O)CCNC(=O)c7cc(NC(=O)c8nccn8C)cn7C)cn6C)cn5C)cn4C)cn3C)cn2C)CC1 [Compound B-381]	6.30 to 7.00	6.30 to 7.00		
Cn1cc(NC(=O)c2nc(NC(=O)CCNC(=O)c3cc(NC(=O)c4nccn4C)cn3C)cn2C)cc1C(=O)NCCCC(=O)Nc1cn(C)c(C(=O)NCCC(=O)Nc2cc(C(=O)Nc3cn(C)c(C(=O)NCCCN(CC#Cc4cccc(C(=O)O)c4)CCCN)n3)n(C)c2)n1 [Compound B-383]	< 6.00	> 7.00		
Cn1cc(NC(=O)c2nc(NC(=O)CCNC(=O)c3cc(NC(=O)c4nccn4C)cn3C)cn2C)cc1C(=O)NCCCC(=O)Nc1cn(C)c(C(=O)NCCC(=O)Nc2cc(C(=O)Nc3cn(C)c(C(=O)NCCCN(CC#Cc4ccc(C(=O)O)cc4)CCCN)n3)n(C)c2)n1 [Compound B-384]	6.30 to 7.00	6.30 to 7.00		
Cn1cc(NC(=O)c2nc(NC(=O)CCNC(=O)c3cc(NC(=O)c4nccn4C)cn3C)cn2C)cc1C(=O)NCCCC(=O)Nc1cn(C)c(C(=O)NCCC(=O)Nc2cc(C(=O)Nc3cn(C)c(C(=O)NCCC(=O)N4CCC(C#CC#CC5CCCCC5)CC4)n3)n(C)c2)n1 [Compound B-385]	< 6.00	6.30 to 7.00		
Cn1cc(NC(=O)c2nc(NC(=O)CCNC(=O)c3cc(NC(=O)c4nccn4C)cn3C)cn2C)cc1C(=O)NCCCC(=O)Nc1cn(C)c(C(=O)NCCC(=O)Nc2cc(C(=O)Nc3cn(C)c(C(=O)NCCCN(C(=O)OC(C)(C)C)C(CO)CO)n3)n(C)c2)n1 [Compound B-390]	6.30 to 7.00	6.30 to 7.00		
Cn1cc(NC(=O)c2nc(NC(=O)CCNC(=O)c3cc(NC(=O)c4nccn4C)cn3C)cn2C)cc1C(=O)NCCCC(=O)Nc1cn(C)c(C(=O)NCCC(=O)Nc2cc(C(=O)Nc3cn(C)c(C(=O)NCCC(=O)NC4COP(=O)(Oc5ccccc5Cl)OC4)n3)n(C)c2)n1 (stereo not drawn) [Compound B-391]			> 1000 nM	> 1000 nM
Cn1cc(NC(=O)c2nc(NC(=O)CCNC(=O)c3cc(NC(=O)c4nccn4C)cn3C)cn2C)cc1C(=O)NCCCC(=O)Nc1cn(C)c(C(=O)NCCC(=O)Nc2cc(C(=O)Nc3cn(C)c(C(=O)NCCC(=O)NC4COP(=O)(O)OC4)n3)n(C)c2)n1 (stereo not drawn) [Compound B-392]	6.00 to 6.30	< 6.00		
Cn1cc(NC(=O)c2nc(NC(=O)CCNC(=O)c3cc(NC(=O)c4nccn4C)cn3C)cn2C)cc1C(=O)NCCCC(=O)Nc1cn(C)c(C(=O)NCCC(=O)Nc2cc(C(=O)Nc3cn(C)c(C(=O)NCCC(=O)NC(CO)COP(=O)(O)Oc4ccccc4Cl)n3)n(C)c2)n1 (stereo not drawn) [Compound B-394]			100 to 500 nM	500 to 1000 nM
CCOC(=O)CCNC(=O)c1nc(NC(=O)c2cc(NC(=O)CCNC(=O)c3nc(NC(=O)CCCNC(=O)c4cc(NC(=O)c5nc(NC(=O)CCNC(=O)c6cc(NC(=O)c7nccn7C)cn6C)cn5C)c[nH]4)cn3C)cn2C)cn1C [Compound B-395]	6.00 to 6.30	6.30 to 7.00		
CCCNC(=O)CCNC(=O)c1nc(NC(=O)c2cc(NC(=O)CCNC(=O)c3nc(NC(=O)CCCNC(=O)c4cc(NC(=O)c5nc(NC(=O)CCNC(=O)c6cc(NC(=O)c7nccn7C)cn6C)cn5C)c[nH]4)cn3C)cn2C)cn1C [Compound B-396]	6.30 to 7.00	6.30 to 7.00		
CCCNC(=O)CCNC(=O)c1nc(NC(=O)c2cc(NC(=O)CCNC(=O)c3nc(NC(=O)CCCNC(=O)c4cc(NC(=O)c5nc(NC(=O)CCNC(=O)c6cc(NC(=O)c7nccn7C)cn6C)cn5C)cn4CCCCCNC(=O)c4ccccc4)cn3C)cn2C)cn1C [Compound B-397]	6.30 to 7.00	6.30 to 7.00		
CCCNC(=O)CCNC(=O)c1nc(NC(=O)c2cc(NC(=O)CCNC(=O)c3nc(NC(=O)CCCNC(=O)c4cc(NC(=O)c5nc(NC(=O)CCNC(=O)c6cc(NC(=O)c7nccn7C)cn6C)cn5C)cn4CCCCCNC(=O)C(C)(C)C)cn3C)cn2C)cn1C [Compound B-398]	6.30 to 7.00	6.30 to 7.00		
C=C(NCCC(=O)Nc1cc(C(=O)Nc2cn(C)c(C(=O)NCCC(=O)NCCC)n2)n(C)c1)c1nc(NC(=O)CCCNC(=O)c2cc(NC(=O)c3nc(NC(=O)CCNC(=O)c4cc(NC(=O)c5nccn5C)cn4C)cn3C)cn2CCCNC(=O)c2ccccc2)cn1C [Compound B-399]	6.00 to 6.30	> 7.00		
C=C(NCCC(=O)Nc1cc(C(=O)Nc2cn(C)c(C(=O)NCCC(=O)NCCC)n2)n(C)c1)c1nc(NC(=O)CCCNC(=O)c2cc(NC(=O)c3nc(NC(=O)CCNC(=O)c4cc(NC(=O)c5nccn5C)cn4C)cn3C)cn2CCCNC(=O)C(C)(C)C)cn1C [Compound B-400]	> 7.00	> 7.00		
C=C(NCCC(=O)Nc1cc(C(=O)Nc2cn(C)c(C(=O)NCCC(=O)NCCC)n2)n(C)c1)c1nc(NC(=O)CCCNC(=O)c2cc(NC(=O)c3nc(NC(=O)CCNC(=O)c4cc(NC(=O)c5nccn5C)cn4C)cn3C)cn2CCCn2cc(COCCOCCOCCOC)nn2)cn1C [Compound B-401]	6.30 to 7.00	> 7.00		
C=C(NCCC(=O)Nc1cc(C(=O)Nc2cn(C)c(C(=O)NCCC(=O)N3CCC(C#CC#CC4CCN(C(C)=O)CC4)CC3)n2)n(C)c1)c1nc(NC(=O)CCCNC(=O)c2cc(NC(=O)c3nc(NC(=O)CCNC(=O)c4cc(NC(=O)c5nccn5C)cn4C)cn3C)cn2CCCn2cc(COCCOCCOCCOC)nn2)cn1C [Compound B-402]	6.30 to 7.00	> 7.00		
CCCNC(=O)CCNC(=O)c1nc(NC(=O)c2cc(NC(=O)CCNC(=O)c3nc(NC(=O)CCCNC(=O)c4cc(NC(=O)c5nc(NC(=O)CCNC(=O)c6cc(NC(=O)c7nccn7C)cn6C)cn5C)cn4CC(C)C)cn3C)cn2C)cn1C [Compound B-403]	> 7.00	> 7.00		
CC(=O)N[C@H](CCNC(=O)c1cc(NC(=O)c2nc(NC(=O)CCNC(=O)c3cc(NC(=O)c4nccn4C)cn3C)cn2C)cn1C)C(=O)Nc1cn(C)c(C(=O)NCCC(=O)Nc2cc(C(=O)Nc3cn(C)c(C(=O)NCCC(=O)N4CCN(C)CC4)n3)n(C)c2)n1 [Compound B-404]	6.00 to 6.30	6.30 to 7.00		
CN1CCN(C(=O)CCNC(=O)c2nc(NC(=O)c3cc(NC(=O)CCNC(=O)c4nc(NC(=O)[C@H](N)CCNC(=O)c5cc(NC(=O)c6nc(NC(=O)CCNC(=O)c7cc(NC(=O)c8nccn8C)cn7C)cn6C)cn5C)cn4C)cn3C)cn2C)CC1 [Compound B-405]	< 6.00	< 6.00		
Cn1cc(NC(=O)c2nccn2C)cc1C(=O)NCCC(=O)Nc1cn(C)c(C(=O)Nc2cc(C(=O)NCC[C@@H](N)C(=O)Nc3cn(C)c(C(=O)NCCC(=O)Nc4cc(C(=O)Nc5cn(C)c(C(=O)CCCC(=O)N6CCCCC6)n5)n(C)c4)n3)n(C)c2)n1 [Compound B-406]	6.30 to 7.00	< 6.00		
Cn1cc(NC(=O)c2nccn2C)cc1C(=O)NCCC(=O)Nc1cn(C)c(C(=O)Nc2cc(C(=O)NCC[C@@H](N)C(=O)Nc3cn(C)c(C(=O)NCCC(=O)Nc4cc(C(=O)Nc5cn(C)c(C(=O)NCCC(=O)N6CCC(C#CC#CC7CCNCC7)CC6)n5)n(C)c4)n3)n(C)c2)n1 [Compound B-407]	6.30 to 7.00	6.00 to 6.30		
CCCCn1cc(NC(=O)c2nc(NC(=O)CCNC(=O)c3cc(NC(=O)c4nccn4C)cn3C)cn2C)cc1C(=O)NCC[C@@H](N)C(=O)Nc1cn(C)c(C(=O)NCCC(=O)Nc2cc(C(=O)Nc3cn(C)c(C(=O)NCCC(=O)N4CCN(C)CC4)n3)n(C)c2)n1 [Compound B-408]	6.30 to 7.00	6.30 to 7.00		
